Patent publication US20250090626A1, “NEW PEPTIDE AND USES THEREOF” (Neo Cremar Co., Ltd., priority 2021, published 2025)
No end group written: not given here.

Assays:
C2C12 cells = assay: Myodifferentiation, Giemsa staining, root canal formation and fusion index; format: cell-based, mouse; details: 3 days
Protocol: When C2C12 cells were 70% grown, media were replaced with myodifferentiation medium added with MSTN protein (1 ng), Ac-MIF1 (1000 nM), and Ac-MIF1 (1000 nM)+MSTN protein (1 ng) from proliferation medium, followed by culture for 3 days.
When the cells grew more than 70% for differentiation of myoblasts into myocytes, they were cultured for 3 days by replacing with a differentiation medium (DMEM+2% FBS+1% P/S). The medium was replaced once daily, and the cells were cultured at 37° C.
The cell medium was removed, and the cells were washed with PBS. After washing, a methanol:PBS reagent in a 1:1 volume ratio was treated, followed by fixation for 2 minutes. Additionally, after a methanol:PBS reagent in a 2:1 volume ratio was added, fixation was followed for additional 2 minutes. After 2 minutes, 0.04% Giemsa reagent was added, and then the cells were left for 30 minutes, washed with PBS after 30 minutes, and observed under a microscope, with 3 photographs taken for each cell (300×). In the photographs taken, the number of fused nuclei in the root canal cells was counted, the number of nuclei of total cells was counted, and the number of fused nuclei was divided by the number of nuclei of the total cells to obtain the % value.

C57BL/6 mice = assay: Myoregeneration effect upon injection of Ac-MIF1 peptide in cardiotoxin-damaged gastrocnemius; format: in vivo, mouse
Description: The male C57BL/6 mice were purchased from Dae Han Bio Link Co., Ltd., four of which per cage were kept in a temperature-controlled room with a 12-hour light cycle. The animals were fed with a standard rodent diet containing 4.0% (wt/wt) total fat (Rodent NIH-31 Open Formula Auto; Zeigler Bros., Inc., Gardners, PA, USA) and water. All experiments involving animals complied with the guidelines (YUMC-AEC2015-006) issued by the Animal Control Committee of Youngnam University's Animal Research Institute. The MSTN knock-out mouse was provided by a laboratory at Seoul National University. Normal, MSTN+/− (heterozygous), and MSTN−/− (homozygous) adipose tissues were fixed by collecting from 6-week-old mice and stored at −80° C. until required for analysis.
Muscle tissues containing paraffin was subjected to deparaffinization with xylene and ethanol and hydration, respectively, and the tissue was soaked in 0.3% hydrogen peroxide water (H2O2)/methanol for 15 minutes to stop endogenous peroxidase activity. Then, tissues were stained with hematoxylin/eosin for morphological observation or reacted with 1% normal goat serum at room temperature for 1 hour to block a reaction with non-specific antibodies, followed by a reaction with the primary antibody (1:50) at 4° C. for over 16 hours. After 16 hours, washing was performed 3 times with PBS, followed by a reaction with secondary antibody (1:100) with HRP conjugated at room temperature for 1 hour. Horse radish peroxidase-conjugated streptavidin was added to detect the expression of the protein, followed by observation under a microscope.
In order to observe the myoregeneration effect following MIF peptide injection, mice were injected with Ac-MIF 1 peptide and injected/uninjected with cardiotoxin (hereinafter referred to as CTX) into the muscle, followed by observation of the morphology and regeneration of the muscle. A day after C57BL/6 mice were injected with Ac-MIF1 peptide (1.125 mM), […] cardiotoxin was injected into the gastrocnemius. Muscle tissues were sampled 7 days after CTX injection.
Paraffin-embedded muscle sections were deparaffinized using xylene, rehydrated using a concentration gradient of ethanol, stained with hematoxylin and eosin, observed under an optical microscope, magnified at 400× scale, and photographed, followed by measurement of the diameter of muscle fibers using Image J software.

[1] = muscle injected with Ac-MIF1 peptide, 7 days after CTX, FIG. 10A
[2] = muscle injected with Ac-MIF1 peptide, 7 days after CTX, FIG. 10B

Substance: Ac-VDFEAFWDWG [Ac-MIF1, MIF1 with N-terminus acetylated, 10 mer]
- fusion index, increase compared to untreated cells (C2C12 cells; C2C12, differentiation medium including peptide): 11%
- root canal formation compared to untreated cells (C2C12 cells; C2C12, differentiation medium): increased
- fusion index compared to untreated cells (C2C12 cells; C2C12, muscle differentiation medium, Ac-MIF1 1000 nM, FIG. 9): increased
- muscle weight compared to muscle without injection (C57BL/6 mice; 7 days after CTX injection): no significant difference
- muscle weight (C57BL/6 mice; CTX + Ac-MIF 1, gastrocnemius, 7 days after CTX injection): 0.140 ± 0.003 g
- MSTN mRNA expression in muscle (C57BL/6 mice; [1]): increased
- MYL2 mRNA expression in muscle (C57BL/6 mice; [1]): increased
- MYOD mRNA expression in muscle (C57BL/6 mice; [1]): increased
- MYL2 protein expression in muscle (C57BL/6 mice; [2]): increased
- MYOD protein expression in muscle (C57BL/6 mice; [2]): increased
- MYOG protein expression in muscle (C57BL/6 mice; [2]): increased
- Pax7 protein expression in muscle (C57BL/6 mice; [2]): increased
- diameter of the muscle fibers compared to without peptide injection (C57BL/6 mice; muscle injected with Ac-MIF1 peptide, 7 days after CTX, FIG. 10C): increased
